Results from patent US4514403A, “Hydrouracil compounds” (Yoshitomi Pharmaceutical Industries Ltd., priority 1980, dated 1985).
Counter-ions that a name gives are not always drawn.

Tests used:
Tolerance test = assay type: in vivo; settings: continuous administration
central nervous system = test: Activity on central nervous system; settings: in vivo
[1] = system: evoked potentials in central nervous system; test: Effect on the various evoked potentials in central nervous system; assay type: in vivo, Male Wistar rats; set-up: key to Amplitude of Evoked Responses, VP-COR / Amplitude of Evoked Responses, HIP-AMY / Amplitude of Evoked Responses, HIP-SEP: -: No change; --: No change; (+): Levallorphan antagonism; (-): Levallorphan antagonism
Description: Male Wistar rats, weighing 300-350 g, were used under ethyl ether anesthesia. The trachea and femoral vein were cannulated for artificial respiration and drug injection, respectively. Immobilization of the rat was maintained by gallamine thioethiodide (10 mg/kg) given intravenously every one hours. All wound edges were infiltration with carbocaine hydrochloride. The experiments began after at least 2 hours had elapsed from discontinuance of ether anesthesia. The COR (somatosensory cortex) evoked potentials by VP (neucleus ventralis posterior thalamus) stimulation (VP - COR evoked potential) were recorded from somatosensory cortex, through a silver electrode applied directly to the cortex. In order to record VP and MRF (midbrain reticular formation) evoked potentials by sciatic nerve stimulation or AMY (amygdala) and SEP (septum) evoked potentials by HIP (hippocampus) stimulation, bipolar stainless steel electrodes were stereotaxically placed into the VP, MRF, AMY, SEP and HIP. The stimuli were delivered to various sites every 2 seconds from a stimulation and consisted of 0.1 msec rectangular pulses (twice threshold intensity). The evoked responses were visualized on an oscilloscope. All records were made up of 20 superimposed tracings.

[2] = rat, in vivo
[3] = rat, in vivo; remark: listed apart in the source
in vivo = settings: rat
Hot plate test = settings: Rattus norvegicus, sc, read-out: Hot Plate Test ED50
Description: (§1) Phenylquinone writhing test, electric stimuli test, tooth pulp nociception test, hot plate test and AgNO3 arthritis test were performed according to the methods described by Y. Marayama et al. in "Arzneimittel-Forschung", 28 (11), 2102-2107 (1978), and bradykinin nociception test was performed by the method described by G. F. Blane in "Journal of Pharmacy and Pharmacology", 19, 367-373 (1967).

Mouse jumping test = settings: administration at a lethal dose
Electric stimuli test = settings: Mus musculus, read-out: Electric Stimuli Test ED50
[4] = Phenylquinone writhing test; settings: for ED50: Mus musculus, read-out: Phenylquinone Writhing Test ED50
Description: as §1

[5] = Tooth pulp nociception test
Description: as §1

[6] = Bradykinin nociception test; settings: for ED50: Rattus norvegicus, read-out: Bradykinin Nociception Test ED50
[7] = Analgesic activity (overall)
Description: as §1

[8] = Antagonism by levallorphan in electric stimuli test; settings: electric stimuli test in mice; levallorphan (narcotic antagonist)
[9] = calculated from inhibition (%) in a low dose

CN1C(=O)CCN(C2CCN(CC=Cc3ccccc3)CC2)C1=O [Test compound A, 1-(1-cinnamyl-4-piperidyl)-3-methyl-hydrouracil hydrochloride]
cross tolerance against codeine (Tolerance test): did not show a cross tolerance against codeine
tolerance (decrease of effects) (Tolerance test): did not cause a significant decrease of effects
muscle relaxant activity (central nervous system): weak
reserpine potentiating activity (central nervous system): weak
suppression of spontaneous locomotor activity (central nervous system): weak
levallorphan antagonism of VP - COR response [1]: levallorphan did not antagonize the response
Amplitude of Evoked Responses, HIP-AMY ([1]; 5 mg/kg i.v.): --
Amplitude of Evoked Responses, HIP-SEP ([1]; 5 mg/kg i.v.): --
Amplitude of Evoked Responses, VP-COR ([1]; 5 mg/kg i.v.): --
Amplitude of Evoked Responses, HIP-AMY ([1]; 10 mg/kg i.v.): --
Amplitude of Evoked Responses, HIP-SEP ([1]; 10 mg/kg i.v.): --
Amplitude of Evoked Responses, HIP-AMY ([1]; 25 mg/kg i.v.): --
Amplitude of Evoked Responses, HIP-SEP ([1]; 25 mg/kg i.v.): --
HIP - AMY evoked potential ([1]; i.v.): no effect
HIP - SEP evoked potential ([1]; i.v.): no effect
amplitude of the VP - COR evoked potential ([1]; i.v.): reduced the amplitude of the VP - COR evoked potential
body weight reduction [2]: not reduced
compensatory adjustment against codeine [3]: had not compensatory adjustment against codeine
LD50 (in vivo; ip): 150 mg/kg
LD50 (in vivo; po): 450 mg/kg
LD50 (in vivo; sc): 300 mg/kg
ED50 (Hot plate test): 10 mg/kg
jumping symptom (Mouse jumping test): did not cause any jumping symptom
ED50 (AgNO3 arthritis test; Rattus norvegicus, sc, read-out: AgNO3 Arthritis Test ED50): 7 mg/kg
Relative potency (Test compound A = 1), AgNO3 Arthritis Test (AgNO3 arthritis test; calculated from ED50): 1
Relative potency (Test compound A = 1), AgNO3 Arthritis Test (AgNO3 arthritis test; [9]): 1
Inhibition (%) of Occurrence of Pain (AgNO3 arthritis test; rats, 5 mg/kg s.c.): 42%
ED50 (Electric stimuli test; po): 200 mg/kg
ED50 (Electric stimuli test; sc): 23 mg/kg
ED50 ([4]; po): 17 mg/kg
ED50 ([4]; sc): 1 mg/kg
Relative potency (Test compound A = 1), Phenylquinone Writhing Test ([4]; calculated from ED50): 1
Relative potency (Test compound A = 1), Phenylquinone Writhing Test [4, 9]: 1
Inhibition (%) of Occurrence of Pain ([4]; mice, 0.5 mg/kg s.c.): 48%
Relative potency (Test compound A = 1), Tooth Pulp Nociception Test ([5]; calculated from ED50): 1
Relative potency (Test compound A = 1), Tooth Pulp Nociception Test [5, 9]: 1
increasing rate in threshold ([5]; rabbits, 2.5 mg/kg i.v.): 75%
ED50 ([6]; po): 40 mg/kg
ED50 ([6]; sc): 4 mg/kg
Relative potency (Test compound A = 1), Bradykinin Nociception Test ([6]; calculated from ED50): 1
Relative potency (Test compound A = 1), Bradykinin Nociception Test [6, 9]: 1
Inhibition (%) of Occurrence of Pain ([6]; rats, 2.5 mg/kg s.c.): 38%
analgesic activity in a low dose [7]: stronger than tramadol and pentazocine
Influence of levallorphan on analgesic activity [8]: did not influence the analgesic activity
